Earlier results in patent EP3733197A1, “ANAEROBIC ANTIOXIDANT COMPOSITION” (Pitcher, Stephen N., priority 2019, dated 2020).

Assays:
[1] = in vivo

SMILES: CC(=O)N[C@@H](CS)C(=O)O [NAC, N-acetylcysteine]
- pregnancy risk (in vivo): category B
- associated adverse effects (orally administered or inhaled): drowsiness, stomatitis, clamminess, rhinorrhea, and hemoptysis
- half-life [1]: approximately 5.6 hours
- renally excreted by the body [1]: 30%
